Results as given in article PMC4864240, “Biotype Characterization, Developmental Profiling, Insecticide Response and Binding Property of Bemisia tabaci Chemosensory Proteins: Role of CSP in Insect Defense” (PLoS ONE, 2016).
Like-named read-outs stand apart in the source and are kept apart here.

Key:
Assay in all cases: biochemical
Assay type in all cases: binding
[1] = biological target: T1, BtabCSP3 (Bemisia tabaci, UniProt A0A097GUB5)
T1 sequence (A0A097GUB5 21-138): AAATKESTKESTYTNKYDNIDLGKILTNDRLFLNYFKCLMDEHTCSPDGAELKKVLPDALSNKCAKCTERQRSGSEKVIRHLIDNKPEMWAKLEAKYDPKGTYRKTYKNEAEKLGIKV
Procedure: (§1) Protein-ligand binding affinity was determined for the three recombinant proteins. Emission fluorescence spectra were recorded on a Jasco FP-6500 Series fluorescence spectrofluorometer. […] Fluorescence was measured using an exciting wavelength of 337 nm. Emission spectrum was recorded between 350 and 500 nm.

[2] = biological target: T2, BtabCSP2 (Bemisia tabaci, UniProt H6UKS9)
T2 sequence (H6UKS9 22-131): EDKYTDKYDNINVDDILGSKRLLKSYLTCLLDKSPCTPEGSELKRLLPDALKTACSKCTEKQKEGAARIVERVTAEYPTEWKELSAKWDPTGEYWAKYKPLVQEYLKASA
Procedure: as §1

[3] = biological target: T3, BtabCSP1 (Bemisia tabaci, UniProt D6N3A3)
T3 sequence (D6N3A3 20-126): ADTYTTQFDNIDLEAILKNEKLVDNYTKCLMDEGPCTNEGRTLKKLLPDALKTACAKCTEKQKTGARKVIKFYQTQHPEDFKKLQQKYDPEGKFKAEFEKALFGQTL
Procedure: as §1

[4] = u.d. = binding constant not calculated, IC50>100 μM, read-out: BtabCSP3 Ki (u.d.)
[5] = u.d. = binding constant not calculated, IC50>100 μM, read-out: BtabCSP2 Ki (u.d.)
[6] = u.d. = binding constant not calculated, IC50>100 μM, read-out: BtabCSP1 Ki (u.d.)
[7] = competitive binding vs 1-NPN, three replicates ± SD, read-out: BtabCSP1 Ki
[8] = displacement of 1-NPN, read-out: IC50, BtabCSP1
[9] = BtabCSP1 Ki (u.d.), u.d. = binding constant not calculated, IC50>100 μM

Compound	Ki [1, 4] [µM]	Ki [2, 5] [µM]	Ki [3, 6] [µM]	IC50 [3, 8] [µM]	other results
CCCCCCCC=O [Octanal]	> 100	> 100	> 100		
CCCCCCCCCCCC(=O)O [Lauric acid]	> 100	> 100			Ki [3, 7]: 35.2 ± 1.42 µM
CCC/C=C/C=O [Trans-2-hexenal]	> 100	> 100	> 100		
CC1(C)[C@H]2CC[C@]1(C)C(=O)C2 [(1S)-(-)-Camphor]					Ki [3, 7]: 50.8 ± 3.08 µM
CCCCCCCCCCCCCCC [n-Pentadecane]	> 100	> 100	> 100		
CC(C)=CCC/C(C)=C/CO [Geraniol]					Ki [1]: > 100 µM; Ki [2]: > 100 µM; IC50 [3]: 14.6 to 95.1 µM; Ki ([3]; BtabCSP1 Ki, competitive binding vs 1-NPN, three replicates ± SD): 39.6 ± 3.01 µM
C=CC(=C)CCC=C(C)C [Myrcene]	> 100	> 100	> 100	14.6 to 95.1	
CCCCCCC=O [Heptanal]	> 100	> 100	> 100		
O=Cc1ccccc1 [Benzaldehyde]					Ki [1]: > 100 µM; Ki [2]: > 100 µM; Ki [3, 9]: > 100 µM
CC1=CCC2C(C1)C2(C)C (stereo not shown) [3-Carene]	> 100	> 100	> 100		
CCCCCC [n-Hexane]					Ki [1]: > 100 µM; Ki [2]: > 100 µM; Ki ([3]; BtabCSP1 Ki (u.d.)): > 100 µM
C=CC(C)(O)CC/C=C(\C)CCC=C(C)C (racemic) [(+/-)Nerolidol]	> 100	> 100	> 100	14.6 to 95.1	
CCCCCCC [n-Heptane]	> 100	> 100	> 100	14.6 to 95.1	
CCC/C=C/CO [Trans-2-hexen-1-ol]	> 100	> 100		14.6 to 95.1	Ki [3, 7]: 46.1 ± 1.25 µM
CCCCCCCCCCC [n-Undecane]	> 100	> 100	> 100		
CC1=CC[C@@H](C(C)(C)O)CC1 [α-Terpineol]	> 100	> 100	> 100	14.6 to 95.1	
CCCCCCCCCCCC=O [Dodecyl aldehyde]	> 100	> 100	> 100		
CCCCCCCCC=O [Nonanal]	> 100	> 100	> 100		
C=C1CC/C=C(\C)CC[C@@H]2[C@@H]1CC2(C)C [Caryopyllene]	> 100	> 100	> 100		
CCCCCCCCCCCCCC(C)=O [2-Pentadecanone]	> 100	> 100	> 100		
CCCCCC(C=O)=Cc1ccccc1 [α-Pentyl-cinnamaldehyde]					Ki ([1]; competitive binding vs 1-NPN, three replicates ± SD, listed as α-pentyl-cinnamaldehyde, read-out: BtabCSP3 Ki): 5.8 µM; Ki ([1]; competitive binding vs 1-NPN, three replicates ± SD, read-out: BtabCSP3 Ki): 5.82 ± 0.31 µM; IC50 ([1]; displacement of 1-NPN): 6.5 µM; Ki ([2]; competitive binding vs 1-NPN, three replicates ± SD, listed as α-pentyl-cinnamaldehyde, read-out: BtabCSP2 Ki): 10.3 µM; Ki ([2]; competitive binding vs 1-NPN, three replicates ± SD, read-out: BtabCSP2 Ki): 10.3 ± 1.17 µM; IC50 ([2]; displacement of 1-NPN): 11.1 µM; Ki [3, 7]: 12.6 ± 1.3 µM
O=C(O)/C=C/c1ccccc1 [Cinnamic acid]	> 100	> 100		14.6 to 95.1	Ki [3, 7]: 75.5 ± 2.29 µM
CC12CCC(CC1)C(C)(C)O2 [1,8-Cineole]	> 100	> 100	> 100		
C=CC(C)(O)CCC=C(C)C (stereo not shown) [Linalool]	> 100	> 100	> 100	14.6 to 95.1	
COC(=O)c1ccccc1O [Methyl salicylate]	> 100	> 100		14.6 to 95.1	Ki [3, 7]: 60 ± 2.74 µM
CCCCCCCCCC(=O)O [Decanoic acid]					Ki [1]: > 100 µM; Ki [2]: > 100 µM; IC50 [3]: 14.6 to 95.1 µM; Ki [3, 9]: > 100 µM
CCCCCC(C)=O [2-Heptanone]	> 100	> 100		14.6 to 95.1	Ki [3, 7]: 55.3 ± 4.21 µM
CC(C)=CCC/C(C)=C/CC/C(C)=C/CO [Trans,trans-Farnesol]	> 100	> 100	> 100		
